This is an account of results in US12220421B2, “Inhibitors of C. difficile spore germination” (THE BOARDS OF REGENTS OF THE NEVADA SYSTEM OF HIGHER …, priority 2021, dated 2025).

One test relates to C. difficile R20291 spores. Kind of test: C. difficile spore germination assay (optical density, OD580). Conditions: Clostridioides difficile, R20291SPORES, Table 5; 6 mM taurocholate, 12 mM glycine.
Regarding `COc1ccccc1NC(=O)CC[C@@H](C)[C@H]1CC[C@H]2[C@@H]3[C@H](O)C[C@@H]4C[C@H](O)CC[C@]4(C)[C@H]3CC[C@]12C` [Compound 54], the IC50 (commonly the concentration at which inhibition is half-maximal) amounted to 6 ± 1 µM.

As to `C[C@H](CCC(=O)Nc1ccccc1)[C@H]1CC[C@H]2[C@@H]3CC[C@@H]4C[C@H](O)CC[C@]4(C)[C@H]3C[C@H](O)[C@]12C` [Compound 57], it took 1.3 ± 0.1 µM to reach half-maximal inhibition (IC50).

`COc1ccccc1NC(=O)CC[C@@H](C)[C@H]1CC[C@H]2[C@@H]3CC[C@@H]4C[C@H](O)CC[C@]4(C)[C@H]3CC[C@]12C` [Compound 58] gave an IC50 of 2.4 ± 0.3 µM.

The test is the same for the next values; noted with them: Clostridioides difficile, R20291SPORES, read-out: % Germination (125 μM), Table 5; compound 125 μM, 6 mM taurocholate, 12 mM glycine; 100% indicates no inhibition.
Take `COc1ccccc1NC(=O)CC[C@@H](C)[C@H]1CC[C@H]2[C@@H]3[C@H](O)C[C@@H]4C[C@H](O)CC[C@]4(C)[C@H]3CC[C@]12C` [Compound 54]: the activity at 125 µM worked out at 31 ± 2%.

As for `C[C@H](CCC(=O)Nc1cccc(F)c1)[C@H]1CC[C@H]2[C@@H]3[C@H](O)C[C@@H]4C[C@H](O)CC[C@]4(C)[C@H]3CC[C@]12C` [Compound 55], the activity at 125 µM worked out at 100%.

As for `Cc1ccc(F)cc1NC(=O)CC[C@@H](C)[C@H]1CC[C@H]2[C@@H]3[C@H](O)C[C@@H]4C[C@H](O)CC[C@]4(C)[C@H]3CC[C@]12C` [Compound 56], the activity at 125 µM stood at 66 ± 6%.

On to `C[C@H](CCC(=O)Nc1ccccc1)[C@H]1CC[C@H]2[C@@H]3CC[C@@H]4C[C@H](O)CC[C@]4(C)[C@H]3C[C@H](O)[C@]12C` [Compound 57], for which the activity at 125 µM was found to be 3 ± 0.2%.

On to `C[C@H](CCC(=O)Nc1cccc(F)c1)[C@H]1CC[C@H]2[C@@H]3CC[C@@H]4C[C@H](O)CC[C@]4(C)[C@H]3C[C@H](O)[C@]12C` [Compound 59], for which the activity at 125 µM amounted to 59 ± 5%.

As to `Cc1ccc(F)cc1NC(=O)CC[C@@H](C)[C@H]1CC[C@H]2[C@@H]3CC[C@@H]4C[C@H](O)CC[C@]4(C)[C@H]3C[C@H](O)[C@]12C` [Compound 60], the activity at 125 µM amounted to 65 ± 0.9%.

On to `C[C@H](CCC(=O)Nc1ccccc1)[C@H]1CC[C@H]2[C@@H]3CC[C@@H]4C[C@H](O)CC[C@]4(C)[C@H]3CC[C@]12C` [Compound 61], for which the activity at 125 µM was determined as 100%.

Take `C[C@H](CCC(=O)Nc1cccc(F)c1)[C@H]1CC[C@H]2[C@@H]3CC[C@@H]4C[C@H](O)CC[C@]4(C)[C@H]3CC[C@]12C` [Compound 63]: the activity at 125 µM was 100%.

Consider `Cc1ccc(F)cc1NC(=O)CC[C@@H](C)[C@H]1CC[C@H]2[C@@H]3CC[C@@H]4C[C@H](O)CC[C@]4(C)[C@H]3CC[C@]12C` [Compound 64], for which the activity at 125 µM is 100%.

Regarding `C[C@H](CCC(=O)Nc1ccccc1)[C@H]1CC[C@H]2[C@@H]3[C@@H](O)C[C@@H]4C[C@H](O)CC[C@]4(C)[C@H]3CC[C@]12C` [Compound 65], the activity at 125 µM came out at 57 ± 0.8%.

For the molecule `COc1ccccc1NC(=O)CC[C@@H](C)[C@H]1CC[C@H]2[C@@H]3[C@@H](O)C[C@]4(C)C[C@H](O)CC[C@]4(C)[C@H]3CC[C@]12C` [Compound 66], the activity at 125 µM came to 100%.

Turning to `C[C@H](CCC(=O)Nc1cccc(F)c1)[C@H]1CC[C@H]2[C@@H]3[C@@H](O)C[C@]4(C)C[C@H](O)CC[C@]4(C)[C@H]3CC[C@]12C` [Compound 67], the activity at 125 µM is 100%.

Turning to `Cc1ccc(F)cc1NC(=O)CC[C@@H](C)[C@H]1CC[C@H]2[C@@H]3[C@@H](O)C[C@@H]4C[C@H](O)CC[C@]4(C)[C@H]3CC[C@]12C` [Compound 68], the activity at 125 µM amounted to 100%.

Still in this test, the particulars now being: Table 5; compound 125 μM, 6 mM taurocholate, 12 mM glycine; 100% indicates no inhibition.
As to `COc1ccccc1NC(=O)CC[C@@H](C)[C@H]1CC[C@H]2[C@@H]3CC[C@@H]4C[C@H](O)CC[C@]4(C)[C@H]3CC[C@]12C` [Compound 58], the “% Germination (125 μM)” value is listed as 0.4 ± 3%.

Turning to `COc1ccccc1NC(=O)CC[C@@H](C)[C@H]1CC[C@H]2[C@@H]3CC[C@@H]4C[C@H](O)CC[C@]4(C)[C@H]3CC[C@]12C` [Compound 62], the “% Germination (125 μM)” value is 100%.
